According to ChEMBL document CHEMBL5214916, “Enzyme inhibition as a potential therapeutic strategy to treat COVID-19 infection” (Bioorg Med Chem, 2021):

Assays:
[1] = tested on: Calu-3; assay: Cytotoxicity against human Calu-3 cells assessed as decrease in viability at 50 uM incubated for 48 hrs by MTT assay; assay type: toxicity, cell-based; details: calu-3, 48 h
[2] = target: T1, Angiotensin-converting enzyme (Homo sapiens, UniProt P12821); assay: Inhibition of recombinant human ACE using Mca-RPGFSAFK (Dnp)- OH as substrate by fluorescence plate reader assay
T1 sequence (P12821 whole entry): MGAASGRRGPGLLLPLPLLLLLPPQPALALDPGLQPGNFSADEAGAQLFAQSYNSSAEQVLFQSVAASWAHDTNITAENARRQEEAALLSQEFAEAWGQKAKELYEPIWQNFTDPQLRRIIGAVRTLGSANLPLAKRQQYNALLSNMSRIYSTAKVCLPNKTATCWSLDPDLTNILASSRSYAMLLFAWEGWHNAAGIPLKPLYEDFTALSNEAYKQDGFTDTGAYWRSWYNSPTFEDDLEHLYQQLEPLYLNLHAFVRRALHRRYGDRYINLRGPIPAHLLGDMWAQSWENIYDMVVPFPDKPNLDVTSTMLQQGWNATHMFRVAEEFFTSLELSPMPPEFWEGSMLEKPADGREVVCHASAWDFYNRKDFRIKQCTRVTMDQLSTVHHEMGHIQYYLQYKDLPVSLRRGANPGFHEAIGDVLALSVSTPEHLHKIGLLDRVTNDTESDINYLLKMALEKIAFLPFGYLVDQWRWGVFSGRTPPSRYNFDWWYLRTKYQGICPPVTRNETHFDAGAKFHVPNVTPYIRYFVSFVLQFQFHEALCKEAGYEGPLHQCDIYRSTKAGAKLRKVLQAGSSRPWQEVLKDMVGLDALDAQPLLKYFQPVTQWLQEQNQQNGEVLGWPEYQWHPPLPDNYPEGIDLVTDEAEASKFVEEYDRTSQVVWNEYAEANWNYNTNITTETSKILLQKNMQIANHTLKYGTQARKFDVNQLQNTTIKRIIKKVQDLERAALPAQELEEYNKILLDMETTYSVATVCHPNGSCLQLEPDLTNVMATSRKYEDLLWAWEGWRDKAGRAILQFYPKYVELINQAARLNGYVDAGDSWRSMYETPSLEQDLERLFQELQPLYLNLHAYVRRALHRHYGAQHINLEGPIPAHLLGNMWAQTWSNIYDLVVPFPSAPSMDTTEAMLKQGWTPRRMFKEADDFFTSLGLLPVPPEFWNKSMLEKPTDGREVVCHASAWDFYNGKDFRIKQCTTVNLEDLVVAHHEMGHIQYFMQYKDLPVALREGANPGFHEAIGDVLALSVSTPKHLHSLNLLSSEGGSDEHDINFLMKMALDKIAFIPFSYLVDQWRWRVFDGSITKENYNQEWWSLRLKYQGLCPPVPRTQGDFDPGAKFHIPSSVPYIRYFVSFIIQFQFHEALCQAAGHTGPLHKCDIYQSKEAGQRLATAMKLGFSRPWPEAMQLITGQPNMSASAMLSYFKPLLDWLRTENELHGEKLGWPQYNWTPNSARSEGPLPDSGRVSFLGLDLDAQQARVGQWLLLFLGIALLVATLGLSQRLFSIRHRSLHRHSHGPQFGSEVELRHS

[3] = target: T1, Angiotensin-converting enzyme; assay: Inhibition of ACE in human MNCs assessed as maximum inhibition using substrate Mca-RPGFSAFK (Dnp)-OH as substrate by fluorescence plate reader assay relative to control; assay type: cell-based; details: Mononuclear cell line
[4] = target: T1, Angiotensin-converting enzyme; assay: Inhibition of recombinant human ACE assessed as maximum inhibition using Mca-RPGFSAFK (Dnp)-OH as substrate by fluorescence plate reader assay relative to control
[5] = target: T2, Angiotensin-converting enzyme 2 (Homo sapiens, UniProt Q9BYF1); assay: Inhibition of recombinant human ACE2 using 7-Mca-YVADAPK (Dnp) as substrate by fluorescence plate reader assay
Target sequence in this assay (Q9BYF1 whole entry): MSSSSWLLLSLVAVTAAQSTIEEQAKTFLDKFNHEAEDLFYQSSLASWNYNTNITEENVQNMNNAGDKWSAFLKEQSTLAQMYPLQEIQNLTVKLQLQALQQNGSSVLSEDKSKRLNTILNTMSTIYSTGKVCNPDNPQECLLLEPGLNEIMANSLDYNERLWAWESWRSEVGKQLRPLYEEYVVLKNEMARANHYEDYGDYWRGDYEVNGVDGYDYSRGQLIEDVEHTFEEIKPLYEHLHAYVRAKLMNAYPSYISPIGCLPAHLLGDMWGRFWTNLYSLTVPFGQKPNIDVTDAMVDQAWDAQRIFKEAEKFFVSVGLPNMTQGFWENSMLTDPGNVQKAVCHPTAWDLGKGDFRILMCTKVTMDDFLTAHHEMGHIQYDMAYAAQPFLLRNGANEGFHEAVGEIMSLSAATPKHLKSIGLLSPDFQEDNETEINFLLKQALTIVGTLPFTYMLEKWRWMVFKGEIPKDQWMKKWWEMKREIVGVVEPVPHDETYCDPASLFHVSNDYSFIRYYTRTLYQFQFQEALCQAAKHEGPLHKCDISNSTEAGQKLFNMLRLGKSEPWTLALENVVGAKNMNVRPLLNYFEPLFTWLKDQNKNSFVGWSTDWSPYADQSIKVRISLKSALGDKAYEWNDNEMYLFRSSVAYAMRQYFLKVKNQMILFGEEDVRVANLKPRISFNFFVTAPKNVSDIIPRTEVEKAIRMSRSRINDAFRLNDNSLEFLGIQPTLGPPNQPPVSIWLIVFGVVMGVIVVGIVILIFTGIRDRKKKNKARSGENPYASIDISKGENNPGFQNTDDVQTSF

[6] = target: T2, Angiotensin-converting enzyme 2; assay: Inhibition of recombinant human ACE2 assessed as maximum inhibition using 7- Mca-YVADAPK (Dnp) as substrate by fluorescence plate reader assay relative to control
Target sequence in this assay (Q9BYF1 18-805 limits assumed): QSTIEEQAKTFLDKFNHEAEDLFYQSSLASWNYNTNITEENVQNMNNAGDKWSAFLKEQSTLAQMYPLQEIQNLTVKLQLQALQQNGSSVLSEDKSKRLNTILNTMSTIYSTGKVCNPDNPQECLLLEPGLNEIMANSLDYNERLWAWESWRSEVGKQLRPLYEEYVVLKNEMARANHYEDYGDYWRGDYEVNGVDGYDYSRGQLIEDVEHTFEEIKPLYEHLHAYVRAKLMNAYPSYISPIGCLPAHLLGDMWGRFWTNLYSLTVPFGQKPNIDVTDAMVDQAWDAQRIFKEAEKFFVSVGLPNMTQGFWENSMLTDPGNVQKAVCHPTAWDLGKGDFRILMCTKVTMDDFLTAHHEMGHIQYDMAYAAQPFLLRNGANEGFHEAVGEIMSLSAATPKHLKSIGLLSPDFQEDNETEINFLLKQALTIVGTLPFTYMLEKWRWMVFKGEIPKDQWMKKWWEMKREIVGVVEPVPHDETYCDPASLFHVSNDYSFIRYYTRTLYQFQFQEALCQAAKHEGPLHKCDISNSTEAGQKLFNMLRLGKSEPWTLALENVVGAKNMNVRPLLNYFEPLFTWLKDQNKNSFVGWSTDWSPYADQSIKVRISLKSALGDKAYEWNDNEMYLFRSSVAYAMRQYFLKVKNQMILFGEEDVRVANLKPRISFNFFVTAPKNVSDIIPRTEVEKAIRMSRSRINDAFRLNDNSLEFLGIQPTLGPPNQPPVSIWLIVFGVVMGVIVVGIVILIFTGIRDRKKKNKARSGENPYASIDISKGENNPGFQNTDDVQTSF

[7] = target: T2, Angiotensin-converting enzyme 2; assay: Inhibition of ACE2 in human MNCs assessed as maximum inhibition using 7- Mca-YVADAPK (Dnp) as substrate by fluorescence plate reader assay relative to control; assay type: cell-based; details: Mononuclear cell line
Target sequence in this assay (Q9BYF1 18-805 limits assumed): as above

[8] = target: Transmembrane protease serine 2 (Homo sapiens, UniProt O15393); assay: Inhibition of TMPRSS2 (unknown origin) expressed in Escherichia coli BL21 (DE3) using H-D cyclohexylalanine-Pro-Arg-AM as substrate by Dixon method
Transmembrane protease serine 2, sequence (O15393 1-255 limits assumed): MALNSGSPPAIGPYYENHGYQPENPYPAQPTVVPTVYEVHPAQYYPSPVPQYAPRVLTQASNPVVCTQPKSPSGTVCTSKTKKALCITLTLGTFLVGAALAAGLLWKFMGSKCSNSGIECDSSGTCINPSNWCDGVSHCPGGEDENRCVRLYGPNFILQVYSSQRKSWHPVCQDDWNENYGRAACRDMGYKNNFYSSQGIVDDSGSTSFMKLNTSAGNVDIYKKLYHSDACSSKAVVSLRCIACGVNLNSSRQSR
Transmembrane protease serine 2, sequence (O15393 256-492 limits assumed): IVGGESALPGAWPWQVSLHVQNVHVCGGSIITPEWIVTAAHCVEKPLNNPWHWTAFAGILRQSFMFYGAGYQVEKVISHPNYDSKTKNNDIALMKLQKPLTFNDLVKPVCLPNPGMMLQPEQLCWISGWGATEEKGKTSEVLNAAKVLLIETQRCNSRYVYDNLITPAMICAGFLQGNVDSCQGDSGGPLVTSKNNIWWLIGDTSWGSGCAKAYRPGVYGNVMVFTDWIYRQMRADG

[9] = tested on: Influenza A virus; assay: Antiviral activity against human pandemic influenza virus A/Hamburg/5/09 (H1N1) infected in human Calu-3 cells assessed as fold decrease in viral titre at 10 uM incubated for 24 hrs by plaque assay; assay type: functional
[10] = tested on: Influenza A virus; assay: Antiviral activity against human pandemic influenza virus A/Aichi/2/68 (H3N2) infected in human Calu-3 cells assessed as fold decrease in viral titre at 50 uM incubated for 24 hrs by plaque assay; assay type: functional
[11] = tested on: Influenza A virus; assay: Antiviral activity against human pandemic influenza virus A/Aichi/2/68 (H3N2) infected in human Calu-3 cells assessed as fold decrease in viral titre at 10 uM incubated for 24 hrs by plaque assay; assay type: functional
[12] = tested on: Influenza A virus; assay: Antiviral activity against human pandemic influenza virus A/Hamburg/5/09 (H1N1) infected in human Calu-3 cells assessed as fold decrease in viral titre at 50 uM incubated for 24 hrs by plaque assay; assay type: functional

CNC(=O)CCCC1CCN(C(=O)[C@H](Cc2cccc(C(=N)N)c2)NS(=O)(=O)c2cccc(-c3ccc(Cl)cc3Cl)c2)CC1
Activity [1]: 20%

CC(C)CC(N[C@@H](Cc1cncn1Cc1cc(Cl)cc(Cl)c1)C(=O)O)C(=O)O (mixture of isomers)
IC50 [2]: 39800 nM | Imax [3]: 22% | Imax [4]: 48% | IC50 [5]: 3.16 nM | Imax [6]: 94% | Imax [7]: 34%

COc1ccc(-c2cccc(S(=O)(=O)N[C@@H](Cc3cccc(C(=N)N)c3)C(=O)N3CCC(NC(=O)NC4CCCCC4)CC3)c2)c(OC)c1
Activity [1]: 20% | Ki [8]: 3 nM

COc1ccc(-c2cccc(S(=O)(=O)N[C@@H](Cc3cccc(C(=N)N)c3)C(=O)N3CCC(CCN)CC3)c2)c(OC)c1
Ki [8]: 1 nM

CNC(=O)NCCC1CCN(C(=O)[C@H](Cc2cccc(C(=N)N)c2)NS(=O)(=O)c2cccc(-c3ccc(Cl)cc3Cl)c2)CC1
Ki [8]: 3 nM

CNC(=O)NCCC1CCN(C(=O)[C@H](Cc2cccc(C(=N)N)c2)NS(=O)(=O)c2cccc(-c3ccc(OC)cc3OC)c2)CC1
Ki [8]: 3 nM

N=C(N)c1cccc(C[C@H](NS(=O)(=O)c2cccc(-c3ccc(Cl)cc3Cl)c2)C(=O)N2CCC(NC(=O)NC3CCCCC3)CC2)c1
Ki [8]: 3 nM

N=C(N)c1cccc(C[C@H](NS(=O)(=O)c2cccc(-c3ccc(Cl)cc3Cl)c2)C(=O)N2CCC(CCN)CC2)c1
fold change (FC) [9]: 10 | fold change (FC) [10]: 100 | fold change (FC) [11]: 100 | fold change (FC) [12]: 100 | Ki [8]: 0.9 nM

CC(C)C[C@@H](N[C@@H](Cc1cncn1Cc1cc(Cl)cc(Cl)c1)C(=O)O)C(=O)O
IC50 [2]: 39800 nM | Imax [3]: 20% | Imax [4]: 49% | IC50 [5]: 1.26 nM | Imax [6]: 93% | Imax [7]: 35%

CC(C)C[C@H](N[C@@H](Cc1cncn1Cc1cc(Cl)cc(Cl)c1)C(=O)O)C(=O)O [ORE-1001]
pIC50 [2]: 5 | Imax [3]: 34% | Imax [4]: 46% | pIC50 [5]: 8.01 | Imax [6]: 80% | Imax [7]: 63%
